From ChEMBL document CHEMBL1201862, “PubChem BioAssay data set” (2004) come the findings set out here.

Experiment [1] concerns the target Large T antigen (Simian virus 40, UniProt P03070). It counts as functional, Betapolyomavirus macacae.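 Further: Confirmatory-stage PubChem screen for compounds that inhibit SV40 T antigen.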
For experiment [2], the target named is Mannose-6-phosphate isomerase (Homo sapiens, UniProt P34949). As to the kind of experiment: MPI inhibition at elevated mannose 6-phosphate – biochemical, fluorescence intensity, high mannose 6-phosphate, primary screen (AID 1220).
Sequence of Mannose-6-phosphate isomerase (P34949 whole entry): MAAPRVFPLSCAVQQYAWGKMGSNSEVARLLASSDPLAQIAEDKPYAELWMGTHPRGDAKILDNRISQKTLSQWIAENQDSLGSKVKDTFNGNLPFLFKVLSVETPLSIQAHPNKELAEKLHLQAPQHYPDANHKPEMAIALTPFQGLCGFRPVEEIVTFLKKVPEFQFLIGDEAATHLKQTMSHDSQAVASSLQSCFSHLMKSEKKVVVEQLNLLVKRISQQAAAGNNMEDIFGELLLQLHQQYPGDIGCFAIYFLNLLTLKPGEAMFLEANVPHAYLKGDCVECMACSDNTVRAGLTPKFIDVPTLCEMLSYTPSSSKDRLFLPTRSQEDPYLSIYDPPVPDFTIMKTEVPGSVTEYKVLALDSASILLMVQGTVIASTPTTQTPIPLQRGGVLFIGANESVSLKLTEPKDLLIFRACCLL
Experiment [3] has as its target DNA dC->dU-editing enzyme APOBEC-3G (Homo sapiens, UniProt Q9HC16). As to the kind of experiment: Dose Response confirmation of small molecule APOBEC3G DNA Deaminase Inhibitors via a fluorescence-based single-stranded DNA deaminase assay. [Related pubchem assays (depositor defined):AID493012, AID493028]. It counts as functional.
In experiment [4] the target is Eukaryotic translation initiation factor 4E (Mus musculus, UniProt P63073). Nature of the experiment: blockers of eIF4G binding by eIF4E – biochemical, TR-FRET, dose response (AID 855).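 Further: potency for disrupting eIF4E binding to eIF4GI seen as loss of FRET.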 It counts as functional.
Sequence of Eukaryotic translation initiation factor 4E (P63073 whole entry): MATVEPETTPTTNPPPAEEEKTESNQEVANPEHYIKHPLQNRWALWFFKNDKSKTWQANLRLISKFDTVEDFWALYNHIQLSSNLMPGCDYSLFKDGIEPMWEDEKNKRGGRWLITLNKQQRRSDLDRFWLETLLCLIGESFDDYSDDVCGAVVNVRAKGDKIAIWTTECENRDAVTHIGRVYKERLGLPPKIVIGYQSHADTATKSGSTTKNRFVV
Experiment [5] addresses Kallikrein-7 (Homo sapiens, UniProt P49862). As to the kind of experiment: Fluorescence Intensity-based biochemical primary high throughput dose response assay to identify activators of kallikrein-7 (K7) zymogen.
The nature of experiment [6]: Late stage counterscreen for inhibitors of Trypanosoma brucei methionyl tRNA synthetase (MetRS): Luminescence-based cell-based high throughput dose response assay to identify compounds that are cytotoxic to Jurkat human T lymphocyte cells. It counts as functional.
The nature of experiment [7]: Counterscreen for inhibitors of Trypanosoma brucei methionyl tRNA synthetase (MetRS): Luminescence-based cell-based high throughput dose response assay to identify compounds that are cytotoxic to Jurkat human T lymphocyte cells. It counts as functional.
Experiment [8] deals with T1, Heat shock factor protein 1 (Mus musculus, UniProt P38532).
T1 sequence (P38532 whole entry): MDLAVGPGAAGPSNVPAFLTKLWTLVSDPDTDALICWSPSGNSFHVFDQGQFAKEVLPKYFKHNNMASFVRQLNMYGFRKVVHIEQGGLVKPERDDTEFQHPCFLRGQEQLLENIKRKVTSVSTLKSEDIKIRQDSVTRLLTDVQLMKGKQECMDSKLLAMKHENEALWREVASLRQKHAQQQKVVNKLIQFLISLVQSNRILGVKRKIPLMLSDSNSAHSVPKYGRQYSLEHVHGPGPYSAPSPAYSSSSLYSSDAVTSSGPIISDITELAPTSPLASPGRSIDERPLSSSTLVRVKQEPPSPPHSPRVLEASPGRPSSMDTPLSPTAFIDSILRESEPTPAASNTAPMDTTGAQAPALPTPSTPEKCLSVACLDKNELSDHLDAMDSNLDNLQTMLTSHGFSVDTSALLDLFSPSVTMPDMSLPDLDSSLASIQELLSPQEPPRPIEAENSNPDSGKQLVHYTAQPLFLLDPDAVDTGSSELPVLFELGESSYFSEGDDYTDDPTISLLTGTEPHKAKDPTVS
As to the kind of experiment: enhancement of HSF1-driven luciferase signal – cell-based, NIH3T3, luminescence, dose retest, confirmation (AID 435004).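 Further: stress induced by proteasome inhibitor MG132 added 30 min after compound; luciferase reporter driven by HSF1 response element in NIH3T3 cells; actives raise luminescence as potentiators of the MG132 stress response.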 It counts as functional.

In experiment [9] the target is T2, Methionyl-tRNA synthetase, putative (Trypanosoma brucei brucei, UniProt Q38C91).
T2 sequence (Q38C91 whole entry): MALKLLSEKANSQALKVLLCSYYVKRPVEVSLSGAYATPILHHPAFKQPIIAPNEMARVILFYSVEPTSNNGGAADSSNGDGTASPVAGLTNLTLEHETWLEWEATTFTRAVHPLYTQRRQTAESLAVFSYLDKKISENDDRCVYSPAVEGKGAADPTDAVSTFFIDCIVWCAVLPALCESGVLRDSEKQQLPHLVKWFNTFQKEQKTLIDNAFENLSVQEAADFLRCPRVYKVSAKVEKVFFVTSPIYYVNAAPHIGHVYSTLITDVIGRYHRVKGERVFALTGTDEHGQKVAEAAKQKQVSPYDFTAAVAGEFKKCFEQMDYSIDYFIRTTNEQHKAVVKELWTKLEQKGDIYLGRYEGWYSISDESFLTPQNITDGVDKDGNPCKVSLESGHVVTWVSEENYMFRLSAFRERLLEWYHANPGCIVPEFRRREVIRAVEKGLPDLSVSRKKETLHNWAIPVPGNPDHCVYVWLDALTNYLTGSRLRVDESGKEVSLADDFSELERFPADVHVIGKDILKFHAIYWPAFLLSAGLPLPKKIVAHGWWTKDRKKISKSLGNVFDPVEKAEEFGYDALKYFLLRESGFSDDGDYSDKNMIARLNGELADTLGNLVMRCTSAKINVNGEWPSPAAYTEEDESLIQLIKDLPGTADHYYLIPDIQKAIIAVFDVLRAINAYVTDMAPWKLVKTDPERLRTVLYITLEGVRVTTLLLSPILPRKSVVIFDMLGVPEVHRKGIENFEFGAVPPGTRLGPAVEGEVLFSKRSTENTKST
It counts as functional, Trypanosoma brucei brucei strain 927/4 GUTat10.1.

Experiment [10] addresses T2, Methionyl-tRNA synthetase, putative. It counts as functional, Trypanosoma brucei brucei strain 927/4 GUTat10.1. This is another data set of the same source.
For experiment [11], the target named is T3, Beta-lactamase (Pseudomonas aeruginosa, UniProt Q79MP6). As to the kind of experiment: inhibition of IMP-1 beta-lactamase activity – biochemical, epi-absorbance, selectivity assay for VIM-2 inhibitor project, dose response (AID 1920).
T3 sequence (Q79MP6 whole entry): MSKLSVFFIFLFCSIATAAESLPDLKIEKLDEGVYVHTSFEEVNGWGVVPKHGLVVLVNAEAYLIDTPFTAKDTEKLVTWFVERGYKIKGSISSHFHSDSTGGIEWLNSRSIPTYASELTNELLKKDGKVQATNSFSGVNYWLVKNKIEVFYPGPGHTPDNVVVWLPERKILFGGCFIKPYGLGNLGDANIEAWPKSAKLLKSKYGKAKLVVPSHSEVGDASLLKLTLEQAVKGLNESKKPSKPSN
Experiment [12] has as its target T3, Beta-lactamase. As to the kind of experiment: […] counterscreen for selective VIM-2 inhibitors: dose response biochemical high throughput screening assay to identify inhibitors of IMP-1 metallo-beta-lactamase.
Experiment [13] deals with Beta-lactamase (Salmonella choleraesuis (strain SC-B67), UniProt Q5J463). As to the kind of experiment: Epi-absorbance-based counterscreen for selective VIM-2 inhibitors: dose response biochemical high throughput screening assay to identify inhibitors of TEM-1 serine-beta-lactamase.
Sequence of Beta-lactamase (Salmonella choleraesuis (strain SC-B67), UniProt Q5J463) (Q5J463 whole entry): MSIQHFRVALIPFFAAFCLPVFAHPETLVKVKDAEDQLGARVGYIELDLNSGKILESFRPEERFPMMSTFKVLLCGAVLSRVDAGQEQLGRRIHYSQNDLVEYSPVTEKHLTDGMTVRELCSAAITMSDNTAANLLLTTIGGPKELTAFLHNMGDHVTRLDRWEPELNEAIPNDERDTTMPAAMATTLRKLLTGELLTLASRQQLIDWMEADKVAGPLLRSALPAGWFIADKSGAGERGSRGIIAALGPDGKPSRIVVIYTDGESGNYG
Experiment [14] concerns the target Mitogen-activated protein kinase 10 (Homo sapiens, UniProt P53779). Nature of the experiment: Dose response biochemical screening assay for inhibitors of c-Jun N-Terminal Kinase 3 (JNK3). [Related pubchem assays: 746 ].
For experiment [15], the target named is Bifunctional protein GlmU (Mycobacterium tuberculosis, UniProt P9WMN3). Nature of the experiment: Inhibitors of Mycobacterial Glucosamine-1-phosphate acetyl transferase (GlmU). Secondary screen. On the set-up: species or system Mycobacterium tuberculosis H37Rv.
Sequence of Bifunctional protein GlmU (P9WMN3 whole entry, the tested form may be a part): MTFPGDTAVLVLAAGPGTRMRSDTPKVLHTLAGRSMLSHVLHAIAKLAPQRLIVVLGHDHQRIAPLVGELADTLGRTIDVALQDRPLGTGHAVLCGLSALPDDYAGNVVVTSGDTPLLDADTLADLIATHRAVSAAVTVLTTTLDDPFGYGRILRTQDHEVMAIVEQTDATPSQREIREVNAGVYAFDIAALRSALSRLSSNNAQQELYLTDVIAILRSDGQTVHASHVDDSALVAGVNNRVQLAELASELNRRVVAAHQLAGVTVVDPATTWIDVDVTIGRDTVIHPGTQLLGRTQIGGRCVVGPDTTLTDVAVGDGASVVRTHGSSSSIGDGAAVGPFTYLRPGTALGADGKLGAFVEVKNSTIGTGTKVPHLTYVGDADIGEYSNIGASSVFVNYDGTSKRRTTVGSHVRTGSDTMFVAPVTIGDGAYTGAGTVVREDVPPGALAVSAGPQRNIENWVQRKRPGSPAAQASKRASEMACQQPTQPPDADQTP
Experiment [16] addresses T4, Carboxy-terminal domain RNA polymerase II polypeptide A small phosphatase 1 (Homo sapiens, UniProt Q9GZU7).
T4 sequence (Q9GZU7 whole entry): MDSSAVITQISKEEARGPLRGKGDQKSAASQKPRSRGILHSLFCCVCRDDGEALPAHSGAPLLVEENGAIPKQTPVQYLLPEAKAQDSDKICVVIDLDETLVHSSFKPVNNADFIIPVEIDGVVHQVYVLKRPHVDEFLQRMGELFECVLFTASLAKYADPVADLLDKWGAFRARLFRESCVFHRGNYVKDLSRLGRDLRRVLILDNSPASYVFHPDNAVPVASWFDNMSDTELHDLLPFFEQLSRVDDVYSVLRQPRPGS
As to the kind of experiment: CTDSP1 inhibitors, concentration-response, biochemical, absorbance readout, ultra-high-throughput screen actives (AID 540297). It counts as functional.

The nature of experiment [17]: viability loss in human Jurkat cells – cell-based, luminescence, cytotoxicity control for P. falciparum gametocyte viability project, dose response (AID 1117277).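 Further: potency reflects loss of cellular ATP meaning fewer viable cells.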 It counts as functional.
A short description of experiment [18]: viability inhibitors of stage V gametocytes – luminescence, dose response (AID 1117278).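 Further: gametocytes exposed to compound for 24 hours.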 It counts as functional, cell-based.

The source made the active and inactive calls.

Sequence of Kallikrein-7 (P49862 whole entry): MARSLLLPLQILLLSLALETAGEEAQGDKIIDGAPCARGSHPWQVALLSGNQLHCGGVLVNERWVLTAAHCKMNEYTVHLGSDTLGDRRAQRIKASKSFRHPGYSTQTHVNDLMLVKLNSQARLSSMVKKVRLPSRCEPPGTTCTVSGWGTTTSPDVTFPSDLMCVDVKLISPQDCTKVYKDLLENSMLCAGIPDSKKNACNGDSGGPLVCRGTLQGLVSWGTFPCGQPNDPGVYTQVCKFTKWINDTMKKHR
Sequence of DNA dC->dU-editing enzyme APOBEC-3G (Q9HC16 whole entry): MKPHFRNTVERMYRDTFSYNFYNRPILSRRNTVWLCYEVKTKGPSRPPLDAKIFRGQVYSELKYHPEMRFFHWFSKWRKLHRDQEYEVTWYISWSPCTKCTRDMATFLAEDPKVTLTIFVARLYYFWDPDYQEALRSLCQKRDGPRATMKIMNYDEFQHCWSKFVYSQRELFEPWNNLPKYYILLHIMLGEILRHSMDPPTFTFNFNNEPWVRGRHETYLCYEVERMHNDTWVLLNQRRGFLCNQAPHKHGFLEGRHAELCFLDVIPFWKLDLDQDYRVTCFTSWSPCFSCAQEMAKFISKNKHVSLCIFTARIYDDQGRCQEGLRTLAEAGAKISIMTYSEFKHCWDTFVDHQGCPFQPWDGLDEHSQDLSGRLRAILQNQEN
Sequence of Mitogen-activated protein kinase 10 (P53779 whole entry): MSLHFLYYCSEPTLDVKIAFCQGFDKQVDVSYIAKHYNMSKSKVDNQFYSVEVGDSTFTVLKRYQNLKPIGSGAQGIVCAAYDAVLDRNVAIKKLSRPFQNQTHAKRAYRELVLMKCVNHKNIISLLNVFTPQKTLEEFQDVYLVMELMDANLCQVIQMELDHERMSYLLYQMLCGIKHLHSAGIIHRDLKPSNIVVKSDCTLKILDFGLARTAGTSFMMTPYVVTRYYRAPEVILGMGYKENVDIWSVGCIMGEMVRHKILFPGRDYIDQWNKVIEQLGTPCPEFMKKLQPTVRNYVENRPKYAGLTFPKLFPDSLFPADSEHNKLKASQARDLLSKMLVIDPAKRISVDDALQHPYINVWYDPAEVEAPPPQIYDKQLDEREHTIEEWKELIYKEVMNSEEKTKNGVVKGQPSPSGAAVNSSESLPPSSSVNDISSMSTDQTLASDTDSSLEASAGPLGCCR
Sequence of Large T antigen (P03070 whole entry): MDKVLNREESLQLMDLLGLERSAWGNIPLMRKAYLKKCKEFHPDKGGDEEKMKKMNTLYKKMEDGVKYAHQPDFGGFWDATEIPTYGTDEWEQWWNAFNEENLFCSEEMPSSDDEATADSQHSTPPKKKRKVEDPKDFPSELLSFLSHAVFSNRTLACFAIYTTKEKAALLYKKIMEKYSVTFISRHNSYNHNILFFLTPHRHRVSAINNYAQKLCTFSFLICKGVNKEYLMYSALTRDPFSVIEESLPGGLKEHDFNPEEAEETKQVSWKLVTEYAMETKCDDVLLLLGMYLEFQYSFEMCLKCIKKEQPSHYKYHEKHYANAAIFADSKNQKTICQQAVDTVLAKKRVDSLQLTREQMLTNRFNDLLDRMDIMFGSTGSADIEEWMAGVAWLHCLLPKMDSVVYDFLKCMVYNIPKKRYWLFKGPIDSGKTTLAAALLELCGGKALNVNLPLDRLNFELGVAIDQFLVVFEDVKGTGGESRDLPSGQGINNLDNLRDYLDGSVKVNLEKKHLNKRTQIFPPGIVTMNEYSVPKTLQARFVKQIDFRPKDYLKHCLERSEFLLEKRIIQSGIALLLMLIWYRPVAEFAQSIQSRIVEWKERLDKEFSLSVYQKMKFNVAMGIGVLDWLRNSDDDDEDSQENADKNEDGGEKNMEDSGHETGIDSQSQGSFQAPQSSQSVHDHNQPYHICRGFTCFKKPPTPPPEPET

In the case of `CC(C)(O)C1Cc2cc(/C=C/C(=O)O)c(O)cc2O1` (stereo not drawn), the IC50 in experiment [1] is 38.3 µM (active); in experiment [2] it was 8.63 µM (active); in [3], 38.2 µM (active); in [4], 30.4 µM (active).

For `O=C(O)CCN1c2cccc3cccc(c23)S1(=O)=O`, in experiment [5], the EC50 is > 7.72 µM (active).

As for `O=C(NCCc1nc2ccccc2[nH]1)c1ccc(Cl)c([N+](=O)[O-])c1`, the IC50 in experiment [6] is > 83.3 µM (inactive); in experiment [7], 44.4 µM (inactive); in [9], 0.221 µM (active); in experiment [10], 0.17 µM (active). The EC50 in [8] was > 260 µM (inactive).

For `Cc1cc(=O)oc2c3c(cc(OCC(=O)N[C@@H](Cc4ccccc4)C(=O)O)c12)OC(C)(C)CC3`, the IC50 in experiment [11], in experiment [12] and in experiment [13] was > 59.6 µM (inactive) each time. Also, in experiment [5], the EC50 was 49 µM (inactive).

Regarding `O=C(CCCCCn1c(=S)[nH]c2ccccc2c1=O)N1CCC2(CC1)OCCO2`, the IC50 in [14] is 29.7 µM (not active).

Regarding `CC1C=CC(C)C(C(=O)O)C1C(=O)O` (stereo not drawn), the results for the half-maximal inhibitory concentration (IC50) in experiment [15] and in experiment [16] were 144 µM (active) and 4.36 µM (active), respectively.

Turning to `Brc1c[nH]c2nc(SCc3nc4ccccc4[nH]3)nc-2c1`, the IC50 in experiment [6] is > 83.3 µM (inactive); in experiment [7], 83.3 µM (inactive); in [9], 7.89 µM (active); in experiment [10], 4.23 µM (active).

Take `COc1ccc(-n2c(-c3ccco3)nc3c(cnn3-c3ccccc3C)c2=O)cc1`: the IC50 is > 83.3 µM (inactive) in [17] and > 109 µM (inactive) in experiment [18].
